Assay results as given in patent US6689773B2, “Uracil substituted phenyl sulfamoyl carboxamides” (BASF Aktiengesellschaft, priority 2000, dated 2004).

Columns and labels:
Type in all cases: in vivo
[1] = tested on: CHEAL, Lambsquarters, Chenopodium album, L. Common; experiment: Postemergence herbicidal evaluation (Example 147); conditions: rating scale 0-9, two to three weeks after treatment
In short: (§1)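 ~2-wk seedlings; spray 40 psi; 0.016–0.032 kg/ha a.i. in acetone/water 80/20 + 1.0% methylated seed oil; greenhouse; rated 0–9 visually at 2–3 wk; multiple tests averaged.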

[2] = tested on: ZEAMX, Field corn, Zea mays L.; experiment: Postemergence herbicidal evaluation (Example 147); conditions: rating scale 0-9, two to three weeks after treatment
In short: as §1

[3] = tested on: XANST, Cocklebur, Xanthium strumariam; experiment: Postemergence herbicidal evaluation (Example 147); conditions: rating scale 0-9, two to three weeks after treatment
In short: as §1

[4] = tested on: TRZAW, Winter wheat, Tritium Aestivum, L. (Winter); experiment: Postemergence herbicidal evaluation (Example 147); conditions: rating scale 0-9, two to three weeks after treatment
In short: as §1

[5] = tested on: SETVI, Green foxtail, Setaria viridis, (L.)Beau; experiment: Postemergence herbicidal evaluation (Example 147); conditions: rating scale 0-9, two to three weeks after treatment
In short: as §1

[6] = tested on: DIGSA, Crabgrass, (Hairy) L, Digitaria sanguinalis, (L)Scop; experiment: Postemergence herbicidal evaluation (Example 147); conditions: rating scale 0-9, two to three weeks after treatment
In short: as §1

[7] = tested on: GLXMA, Soybean, Glycine max, (L.) Merr.; experiment: Postemergence herbicidal evaluation (Example 147); conditions: rating scale 0-9, two to three weeks after treatment
In short: as §1

[8] = tested on: AMBEL, Ragweed, Common, Ambrosia artemiisifolia, L.; experiment: Postemergence herbicidal evaluation (Example 147); conditions: rating scale 0-9, two to three weeks after treatment
In short: as §1

[9] = tested on: ALOMY, Blackgrass, Alopecurus myosuroides; experiment: Postemergence herbicidal evaluation (Example 147); conditions: rating scale 0-9, two to three weeks after treatment
In short: as §1

[10] = tested on: ECHCG, Barnyardgrass, Echinochloa crusgalli, (L.)Beau; experiment: Postemergence herbicidal evaluation (Example 147); conditions: rating scale 0-9, two to three weeks after treatment
In short: as §1

[11] = tested on: ABUTH, Velvetleaf, Abutilon theophrasti, Medic.; experiment: Postemergence herbicidal evaluation (Example 147); conditions: rating scale 0-9, two to three weeks after treatment
In short: as §1

[12] = tested on: IPOHE, Morningglory, Ivyleaf, Ipomoea hederacea, (L)Jacq.; experiment: Postemergence herbicidal evaluation (Example 147); conditions: rating scale 0-9, two to three weeks after treatment
In short: as §1

[13] = tested on: CHEAL, Lambsquarters, Chenopodium album, L. Common; experiment: Preemergence herbicidal evaluation (Example 148); conditions: rating scale 0-9, two to four weeks after treatment
In short: (§2)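 Sow seed–soil mix onto ~1 in soil; spray aqueous acetone compound solution (~0.125–0.250 kg/ha equivalent); keep on greenhouse benches under standard watering; score injury visually after 2–4 weeks.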

[14] = tested on: ZEAMX, Field corn, Zea mays L.; experiment: Preemergence herbicidal evaluation (Example 148); conditions: rating scale 0-9, two to four weeks after treatment
In short: as §2

[15] = tested on: XANST, Cocklebur, Xanthium strumariam; experiment: Preemergence herbicidal evaluation (Example 148); conditions: rating scale 0-9, two to four weeks after treatment
In short: as §2

[16] = tested on: TRZAW, Winter wheat, Tritium Aestivum, L. (Winter); experiment: Preemergence herbicidal evaluation (Example 148); conditions: rating scale 0-9, two to four weeks after treatment
In short: as §2

[17] = tested on: SETVI, Green foxtail, Setaria viridis, (L.)Beau; experiment: Preemergence herbicidal evaluation (Example 148); conditions: rating scale 0-9, two to four weeks after treatment
In short: as §2

[18] = tested on: DIGSA, Crabgrass, (Hairy) L, Digitaria sanguinalis, (L)Scop; experiment: Preemergence herbicidal evaluation (Example 148); conditions: rating scale 0-9, two to four weeks after treatment
In short: as §2

[19] = tested on: GLXMA, Soybean, Glycine max, (L.) Merr.; experiment: Preemergence herbicidal evaluation (Example 148); conditions: rating scale 0-9, two to four weeks after treatment
In short: as §2

[20] = tested on: AMBEL, Ragweed, Common, Ambrosia artemiisifolia, L.; experiment: Preemergence herbicidal evaluation (Example 148); conditions: rating scale 0-9, two to four weeks after treatment
In short: as §2

[21] = tested on: ALOMY, Blackgrass, Alopecurus myosuroides; experiment: Preemergence herbicidal evaluation (Example 148); conditions: rating scale 0-9, two to four weeks after treatment
In short: as §2

[22] = tested on: ECHCG, Barnyardgrass, Echinochloa crusgalli, (L.)Beau; experiment: Preemergence herbicidal evaluation (Example 148); conditions: rating scale 0-9, two to four weeks after treatment
In short: as §2

[23] = tested on: ABUTH, Velvetleaf, Abutilon theophrasti, Medic.; experiment: Preemergence herbicidal evaluation (Example 148); conditions: rating scale 0-9, two to four weeks after treatment
In short: as §2

[24] = tested on: IPOHE, Morningglory, Ivyleaf, Ipomoea hederacea, (L)Jacq.; experiment: Preemergence herbicidal evaluation (Example 148); conditions: rating scale 0-9, two to four weeks after treatment
In short: as §2

CCCN(CC)S(=O)(=O)NC(=O)c1cc(-n2c(=O)cc(C(F)(F)F)n(C)c2=O)c(F)cc1Cl [Example 62]
Postemergence herbicidal rating CHEAL ([1]; rate 0.016 kg/ha): 7.0 | Postemergence herbicidal rating CHEAL ([1]; rate 0.032 kg/ha): 8.0 | Postemergence herbicidal rating ZEAMX ([2]; rate 0.016 kg/ha): 6.5 | Postemergence herbicidal rating ZEAMX ([2]; rate 0.032 kg/ha): 6.5 | Postemergence herbicidal rating XANST ([3]; rate 0.016 kg/ha): 9.0 | Postemergence herbicidal rating XANST ([3]; rate 0.032 kg/ha): 9.0 | Postemergence herbicidal rating TRZAW ([4]; rate 0.016 kg/ha): 5.5 | Postemergence herbicidal rating TRZAW ([4]; rate 0.032 kg/ha): 6.5 | Postemergence herbicidal rating SETVI ([5]; rate 0.016 kg/ha): 6.0 | Postemergence herbicidal rating SETVI ([5]; rate 0.032 kg/ha): 6.0 | Postemergence herbicidal rating DIGSA ([6]; rate 0.016 kg/ha): 5.0 | Postemergence herbicidal rating DIGSA ([6]; rate 0.032 kg/ha): 5.0 | Postemergence herbicidal rating GLXMA ([7]; rate 0.016 kg/ha): 8.0 | Postemergence herbicidal rating GLXMA ([7]; rate 0.032 kg/ha): 8.0 | Postemergence herbicidal rating AMBEL ([8]; rate 0.016 kg/ha): 9.0 | Postemergence herbicidal rating AMBEL ([8]; rate 0.032 kg/ha): 9.0 | Postemergence herbicidal rating ALMOY ([9]; rate 0.016 kg/ha): 2.0 | Postemergence herbicidal rating ALMOY ([9]; rate 0.032 kg/ha): 2.0 | Postemergence herbicidal rating ECHCG ([10]; rate 0.016 kg/ha): 6.0 | Postemergence herbicidal rating ECHCG ([10]; rate 0.032 kg/ha): 7.0 | Postemergence herbicidal rating ABUTH ([11]; rate 0.016 kg/ha): 9.0 | Postemergence herbicidal rating ABUTH ([11]; rate 0.032 kg/ha): 9.0 | Postemergence herbicidal rating IPOHE ([12]; rate 0.016 kg/ha): 9.0 | Postemergence herbicidal rating IPOHE ([12]; rate 0.032 kg/ha): 9.0 | Preemergence herbicidal rating CHEAL ([13]; rate 0.125 kg/ha): 9.0 | Preemergence herbicidal rating CHEAL ([13]; rate 0.25 kg/ha): 9.0 | Preemergence herbicidal rating ZEAMX ([14]; rate 0.125 kg/ha): 1.0 | Preemergence herbicidal rating ZEAMX ([14]; rate 0.25 kg/ha): 1.0 | Preemergence herbicidal rating XANST ([15]; rate 0.125 kg/ha): 9.0 | Preemergence herbicidal rating XANST ([15]; rate 0.25 kg/ha): 9.0 | Preemergence herbicidal rating TRZAW ([16]; rate 0.125 kg/ha): 3.0 | Preemergence herbicidal rating TRZAW ([16]; rate 0.25 kg/ha): 5.0 | Preemergence herbicidal rating SETVI ([17]; rate 0.125 kg/ha): 3.0 | Preemergence herbicidal rating SETVI ([17]; rate 0.25 kg/ha): 7.0 | Preemergence herbicidal rating DIGSA ([18]; rate 0.125 kg/ha): 5.0 | Preemergence herbicidal rating DIGSA ([18]; rate 0.25 kg/ha): 7.0 | Preemergence herbicidal rating GLXMA ([19]; rate 0.125 kg/ha): 5.0 | Preemergence herbicidal rating GLXMA ([19]; rate 0.25 kg/ha): 9.0 | Preemergence herbicidal rating AMBEL ([20]; rate 0.125 kg/ha): 9.0 | Preemergence herbicidal rating AMBEL ([20]; rate 0.25 kg/ha): 9.0 | Preemergence herbicidal rating ALMOY ([21]; rate 0.125 kg/ha): 0.0 | Preemergence herbicidal rating ALMOY ([21]; rate 0.25 kg/ha): 0.0 | Preemergence herbicidal rating ECHCG ([22]; rate 0.125 kg/ha): 3.0 | Preemergence herbicidal rating ECHCG ([22]; rate 0.25 kg/ha): 6.0 | Preemergence herbicidal rating ABUTH ([23]; rate 0.125 kg/ha): 9.0 | Preemergence herbicidal rating ABUTH ([23]; rate 0.25 kg/ha): 9.0 | Preemergence herbicidal rating IPOHE ([24]; rate 0.125 kg/ha): 9.0 | Preemergence herbicidal rating IPOHE ([24]; rate 0.25 kg/ha): 9.0

C=CCN(C)S(=O)(=O)NC(=O)c1cc(-n2c(=O)cc(C(F)(F)F)n(C)c2=O)c(F)cc1Cl [Example 59]
Postemergence herbicidal rating CHEAL ([1]; rate 0.016 kg/ha): 7.0 | Postemergence herbicidal rating CHEAL ([1]; rate 0.032 kg/ha): 8.0 | Postemergence herbicidal rating ZEAMX ([2]; rate 0.016 kg/ha): 8.0 | Postemergence herbicidal rating ZEAMX ([2]; rate 0.032 kg/ha): 8.0 | Postemergence herbicidal rating XANST ([3]; rate 0.016 kg/ha): 9.0 | Postemergence herbicidal rating XANST ([3]; rate 0.032 kg/ha): 9.0 | Postemergence herbicidal rating TRZAW ([4]; rate 0.016 kg/ha): 4.0 | Postemergence herbicidal rating TRZAW ([4]; rate 0.032 kg/ha): 4.5 | Postemergence herbicidal rating SETVI ([5]; rate 0.016 kg/ha): 7.0 | Postemergence herbicidal rating SETVI ([5]; rate 0.032 kg/ha): 8.0 | Postemergence herbicidal rating DIGSA ([6]; rate 0.016 kg/ha): 4.0 | Postemergence herbicidal rating DIGSA ([6]; rate 0.032 kg/ha): 5.0 | Postemergence herbicidal rating GLXMA ([7]; rate 0.016 kg/ha): 8.0 | Postemergence herbicidal rating GLXMA ([7]; rate 0.032 kg/ha): 8.5 | Postemergence herbicidal rating AMBEL ([8]; rate 0.016 kg/ha): 7.0 | Postemergence herbicidal rating AMBEL ([8]; rate 0.032 kg/ha): 9.0 | Postemergence herbicidal rating ALMOY ([9]; rate 0.016 kg/ha): 3.0 | Postemergence herbicidal rating ALMOY ([9]; rate 0.032 kg/ha): 4.0 | Postemergence herbicidal rating ECHCG ([10]; rate 0.016 kg/ha): 6.0 | Postemergence herbicidal rating ECHCG ([10]; rate 0.032 kg/ha): 7.0 | Postemergence herbicidal rating ABUTH ([11]; rate 0.016 kg/ha): 9.0 | Postemergence herbicidal rating ABUTH ([11]; rate 0.032 kg/ha): 9.0 | Postemergence herbicidal rating IPOHE ([12]; rate 0.016 kg/ha): 9.0 | Postemergence herbicidal rating IPOHE ([12]; rate 0.032 kg/ha): 9.0 | Preemergence herbicidal rating CHEAL ([13]; rate 0.125 kg/ha): 9.0 | Preemergence herbicidal rating CHEAL ([13]; rate 0.25 kg/ha): 9.0 | Preemergence herbicidal rating ZEAMX ([14]; rate 0.125 kg/ha): 0.0 | Preemergence herbicidal rating ZEAMX ([14]; rate 0.25 kg/ha): 2.0 | Preemergence herbicidal rating XANST ([15]; rate 0.125 kg/ha): 0.0 | Preemergence herbicidal rating XANST ([15]; rate 0.25 kg/ha): 9.0 | Preemergence herbicidal rating TRZAW ([16]; rate 0.125 kg/ha): 0.0 | Preemergence herbicidal rating TRZAW ([16]; rate 0.25 kg/ha): 0.0 | Preemergence herbicidal rating SETVI ([17]; rate 0.125 kg/ha): 4.0 | Preemergence herbicidal rating SETVI ([17]; rate 0.25 kg/ha): 9.0 | Preemergence herbicidal rating DIGSA ([18]; rate 0.125 kg/ha): 3.0 | Preemergence herbicidal rating DIGSA ([18]; rate 0.25 kg/ha): 7.0 | Preemergence herbicidal rating GLXMA ([19]; rate 0.125 kg/ha): 2.0 | Preemergence herbicidal rating GLXMA ([19]; rate 0.25 kg/ha): 8.0 | Preemergence herbicidal rating AMBEL ([20]; rate 0.125 kg/ha): 9.0 | Preemergence herbicidal rating AMBEL ([20]; rate 0.25 kg/ha): 9.0 | Preemergence herbicidal rating ALMOY ([21]; rate 0.125 kg/ha): 0.0 | Preemergence herbicidal rating ALMOY ([21]; rate 0.25 kg/ha): 4.0 | Preemergence herbicidal rating ECHCG ([22]; rate 0.125 kg/ha): 0.0 | Preemergence herbicidal rating ECHCG ([22]; rate 0.25 kg/ha): 3.0 | Preemergence herbicidal rating ABUTH ([23]; rate 0.125 kg/ha): 9.0 | Preemergence herbicidal rating ABUTH ([23]; rate 0.25 kg/ha): 9.0 | Preemergence herbicidal rating IPOHE ([24]; rate 0.125 kg/ha): 9.0 | Preemergence herbicidal rating IPOHE ([24]; rate 0.25 kg/ha): 9.0
